Measured values from patent US4151273A, “Increasing the absorption rate of insoluble drugs” (priority 1978, dated 1979).
In brackets after ≈: the same amount, converted by molar mass. Entries after “also recorded” stand apart in the source; their conditions may differ.

Key:
Assay type in all cases: physicochemical
[1] = Dissolution rate study of griseofulvin compositions (saturation dissolution apparatus); settings: for 20% dissolution time: 5 mg gris in 500 ml water at 25°, 100 r.p.m.
Description: A recycling and automatic recording system was used for all dissolution rate studies. The dissolution rate of gris in different physical forms were run in 500 ml. distilled water in a 600 ml. beaker at room temperature.
Unless otherwise specified, samples of 80 to 200 mesh powder were transferred directly into the dissolution medium and stirred with a stainless steel paddle. The paddle, 5.5 × 2.7 cm., was placed at the center of a 500 ml. dissolution medium and rotated at a rate of 100 r.p.m. The solution was pumped by a peristatic pump (Multi-speed Transmission, model No. 6000-000, available from the Harvard Apparatus Co., Dover, Mass.) at a rate of 80 to 100 ml./min. through a glass filter stick to a 1-cm. flow cell and then back to the dissolution apparatus. The absorbance of the solution is monitored by a recording Beckman DB spectrophotometer at either the miximum peak of gris, 292 mu., or minimum absorbance, 272 mu. depending upon the concentration of gris. In the system of gris-PEG 20,000, 324 mu. was used because of possible interference of absorption by the polymer at 272 mu. The volume of the solution in the tubing of the recycling system is about 10 ml. At the flow rate used, the monitored absorbance will reach 90% of the equilibrium valve in 15 sec. Therefore, the lag time in the measurement of dissolution rate is essentially negligible. In the study of the dissolution rate at room temperature, the water is preadjusted to 25° C. The ambient temperature of the room ranged less than 2° from this temperature.
Samples of micronized gris and of gris of 100 to 200 mesh particle size distribution were also run. […] All samples were run in duplicate.
^a Five milligrams gris in 500 ml. of water at 25°.
^b Dissolution times taken from recorded absorbance readings.

[2] = Solubility of griseofulvin in water; settings: 25° C., read-out: solubility of gris
[3] = Stability of gris on preparing the solid solutions (melting point, spectra, thin layer chromatography); settings: following solvent or direct fusion methods
Description: A number of tests were made to establish that the gris was not decomposed in any manner following either the solvent or the direct fusion methods of preparing the solid solutions. The melting point, the spectra of the ultra-violet, the infrared and fluorescence are all identical to those of the gris used as a starting material.

[4] = Dissolution studies involving other materials (time for 20% dissolution); settings: in water
Description: Dissolution studies were similarly made involving other materials.

SMILES | 20% dissolution time [1] [min] | time to 20% dissolution [4] | further results
COC1=CC(=O)C[C@@H](C)[C@]12Oc1c(Cl)c(OC)cc(OC)c1C2=O [100-200 Mesh pure gris, griseofulvin] | 60.0 | – | –
COC1=CC(=O)C[C@@H](C)[C@]12Oc1c(Cl)c(OC)cc(OC)c1C2=O [Micronized gris (wetted), griseofulvin] | 2.0 | – | –
COC1=CC(=O)C[C@@H](C)[C@]12Oc1c(Cl)c(OC)cc(OC)c1C2=O [Micronizied gris (nonwetted), griseofulvin] | 25.0 | – | dissolution rate (in words) ([1]; compared with other gris forms, wetting with 2 ml of 0.2% polysorbate (Tween 20), micronized gris): markedly slower than that of the same powder when wetted first; also recorded: almost the same dissolution rate as the 100-200 mish gris
COC1=CC(=O)C[C@@H](C)[C@]12Oc1c(Cl)c(OC)cc(OC)c1C2=O [gris, griseofulvin] | – | – | solubility [2]: 10 µg/mL (≈ 28.3 µM); decomposition of gris (in words) [3]: no additional spots were detected
CC(=O)OCC(=O)[C@@]1(O)CC[C@H]2[C@@H]3CCC4=CC(=O)CC[C@]4(C)[C@H]3[C@@H](O)C[C@@]21C [hydrocortisone acetate] | – | more than 20 minutes | –
C[C@]12CCC(=O)C=C1CC[C@@H]1[C@@H]2CC[C@@]2(C)[C@H]1CC[C@]2(C)O [methyltestosterone] | – | 2 min | –
C[C@H]1O[C@@H](O[C@H]2[C@@H](O)C[C@H](O[C@H]3[C@@H](O)C[C@H](O[C@H]4CC[C@@]5(C)[C@H](CC[C@@H]6[C@@H]5CC[C@]5(C)[C@@H](C7=CC(=O)OC7)CC[C@]65O)C4)O[C@@H]3C)O[C@@H]2C)C[C@H](O)[C@@H]1O [microcrystalline digitoxin, digitoxin] | – | about 15 minutes | –
CC(=O)OCC(=O)[C@@]1(O)CC[C@H]2[C@@H]3CCC4=CC(=O)C=C[C@]4(C)[C@H]3[C@@H](O)C[C@@]21C [prednisolone acetate] | – | 8 min | –
